{"source": "paper PMC10247784", "about": "“Physiological activation of human and mouse bitter taste receptors by bile acids” (Communications Biology, 2023)", "assay_type_in_all_cases": "cell-based", "key": {"[1]": {"target": "T1, human TAS2R46 (Homo sapiens, UniProt P59540)", "T1 construct": "expressed in transfected cells; host or cells: HEK293T-Gα16gust44", "T1 sequence (P59540 1-309)": "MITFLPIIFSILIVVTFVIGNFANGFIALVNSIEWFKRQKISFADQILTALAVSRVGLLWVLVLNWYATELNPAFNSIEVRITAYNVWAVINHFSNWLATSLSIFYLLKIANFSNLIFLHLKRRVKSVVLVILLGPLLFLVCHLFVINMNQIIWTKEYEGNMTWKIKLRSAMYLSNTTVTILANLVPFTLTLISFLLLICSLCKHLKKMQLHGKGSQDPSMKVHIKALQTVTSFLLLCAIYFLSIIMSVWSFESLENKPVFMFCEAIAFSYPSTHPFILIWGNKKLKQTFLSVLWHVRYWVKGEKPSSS", "experiment": "Calcium imaging assay (FLIPR), HEK293T-Gα16gust44 cells transfected with human TAS2R46", "details": "TAS2R46, positive control at 10 µM", "protocol": "(§1) This set of bile acids was chosen because of their commercial availability in high purities, their diversity within the class of bile acids and their previous detection and quantitation in human blood. Stock solutions were prepared in DMSO.\n(§2) As basal growth medium for the HEK293T-Gα16gust44 cell line[17],[59] served Dulbecco’s modified eagle medium (DMEM) (Thermo Fisher Scientific, Darmstadt, Germany) supplemented with 10 % fetal bovine serum (Sigma-Aldrich, Steinheim, Germany), 2 mM L-glutamine (Sigma-Aldrich, Steinheim, Germany), 100 units/ml penicillin (Sigma Aldrich, Steinheim, Germany) and 100 µg/ml streptomycin (Sigma Aldrich, Steinheim, Germany). Growth conditions were 37 °C, 5 % CO2 and saturated air-humidity[60].\n(§3) HEK293T-Gα16gust44 cells were seeded on poly-D-lysine (10 µg/ml) coated 96-well plates to reach a confluence of 40-60 % the next day. For transient transfection 150 ng of plasmid DNA containing the receptor of interest and 0.3 µl lipofectamine 2000 (Thermo Fisher Scientific, Darmstadt, Germany) per well were used and transfection took place according to the manual of lipofectamine 2000. […] The empty vector DNA (mock) was transfected as negative control[14],[41].\n(§4) Cells were loaded using the calcium-sensitive fluorescent dye Fluo-4-AM (Abcam, Cambridge, Great Britain) in the presence of 2.5 mM probenecid (Sigma-Aldrich, Steinheim, Germany) the day after transfection[13],[41]. 1 h after loading, cells were washed with C1 buffer using a BioTek Cell Washer, incubated in the dark for half an hour and washed again. For automated agonist application and measurement of fluorescence changes, a FLIPR^TETRA device (Molecular Devices, San José, United States) was used. Viability of cells was tested by application of 100 nM Somatostatin 14 (Bachem, Bubendorf, Switzerland)[42].\n(§5) Measured data were negative control corrected by subtracting the signal of the mock-transfected cells and exported to Microsoft Excel using the FLIPR software ScreenWorks 4.2. In Microsoft Excel software, standardization of maximum fluorescence intensities to the basal fluorescence and normalization to the buffer-only control was done to calculate the relative fluorescence changes (ΔF/F).\n(§6) Initial screening experiments performed in duplicate wells were confirmed by at least one replication and representative traces were selected for display. All dose-response relationships were determined by three independent experiments (biological replicates) performed in duplicates (technical replicates). Threshold concentrations, defined as lowest substance concentrations leading to statistically significant elevated fluorescence changes in receptor-transfected cells compared with empty vector-transfected cells, were determined using SigmaPlot with Student’s t-test to evaluate statistical significance (p < 0.01)."}, "[2]": {"target": "T2, human TAS2R14 (Homo sapiens, UniProt Q9NYV8)", "T2 construct": "expressed in transfected cells; host or cells: HEK293T-Gα16gust44", "T2 sequence (Q9NYV8 1-317)": "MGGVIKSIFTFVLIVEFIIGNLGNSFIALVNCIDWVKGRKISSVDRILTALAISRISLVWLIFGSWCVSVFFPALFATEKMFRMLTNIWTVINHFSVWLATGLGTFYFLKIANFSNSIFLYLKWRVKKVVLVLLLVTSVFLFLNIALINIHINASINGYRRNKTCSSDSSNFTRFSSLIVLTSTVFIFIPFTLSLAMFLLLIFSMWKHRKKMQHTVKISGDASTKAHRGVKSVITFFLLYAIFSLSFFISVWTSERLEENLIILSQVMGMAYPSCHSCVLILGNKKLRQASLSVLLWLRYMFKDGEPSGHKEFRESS", "experiment": "Calcium imaging assay (FLIPR), HEK293T-Gα16gust44 cells transfected with human TAS2R14", "protocol": "as §1, §2, §3, §4, §5, §6"}, "[3]": {"target": "T3, human TAS2R39 (Homo sapiens, UniProt P59534)", "T3 construct": "expressed in transfected cells; host or cells: HEK293T-Gα16gust44", "T3 sequence (P59534 1-338)": "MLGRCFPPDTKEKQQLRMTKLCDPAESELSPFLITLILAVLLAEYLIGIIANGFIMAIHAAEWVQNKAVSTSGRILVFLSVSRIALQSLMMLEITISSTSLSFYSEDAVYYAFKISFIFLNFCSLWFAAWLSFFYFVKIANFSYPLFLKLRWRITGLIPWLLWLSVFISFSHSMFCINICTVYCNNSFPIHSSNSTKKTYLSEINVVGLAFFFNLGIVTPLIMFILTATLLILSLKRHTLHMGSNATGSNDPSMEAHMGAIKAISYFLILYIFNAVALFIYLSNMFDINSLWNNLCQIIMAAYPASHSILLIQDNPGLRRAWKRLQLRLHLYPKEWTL", "experiment": "Calcium imaging assay (FLIPR), HEK293T-Gα16gust44 cells transfected with human TAS2R39", "details": "TAS2R39, positive control at 3 mM", "protocol": "as §1, §2, §3, §4, §5, §6"}, "[4]": {"target": "T4, human TAS2R1 (Homo sapiens, UniProt Q9NYW7)", "T4 construct": "expressed in transfected cells; host or cells: HEK293T-Gα16gust44", "T4 sequence (Q9NYW7 1-299)": "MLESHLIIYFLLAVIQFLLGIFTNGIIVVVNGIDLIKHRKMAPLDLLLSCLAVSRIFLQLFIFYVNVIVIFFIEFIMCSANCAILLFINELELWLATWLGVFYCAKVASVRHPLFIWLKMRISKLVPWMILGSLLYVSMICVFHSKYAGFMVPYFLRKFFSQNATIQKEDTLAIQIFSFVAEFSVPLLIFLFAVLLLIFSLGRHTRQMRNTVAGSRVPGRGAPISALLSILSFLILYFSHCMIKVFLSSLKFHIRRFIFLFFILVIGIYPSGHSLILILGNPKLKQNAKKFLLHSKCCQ", "experiment": "Calcium imaging assay (FLIPR), HEK293T-Gα16gust44 cells transfected with human TAS2R1", "details": "TAS2R1, positive control at 1 mM", "protocol": "as §1, §2, §3, §4, §5, §6"}, "[5]": {"target": "T5, human TAS2R4 (Homo sapiens, UniProt Q9NYW5)", "T5 construct": "expressed in transfected cells; host or cells: HEK293T-Gα16gust44", "T5 sequence (Q9NYW5 1-299)": "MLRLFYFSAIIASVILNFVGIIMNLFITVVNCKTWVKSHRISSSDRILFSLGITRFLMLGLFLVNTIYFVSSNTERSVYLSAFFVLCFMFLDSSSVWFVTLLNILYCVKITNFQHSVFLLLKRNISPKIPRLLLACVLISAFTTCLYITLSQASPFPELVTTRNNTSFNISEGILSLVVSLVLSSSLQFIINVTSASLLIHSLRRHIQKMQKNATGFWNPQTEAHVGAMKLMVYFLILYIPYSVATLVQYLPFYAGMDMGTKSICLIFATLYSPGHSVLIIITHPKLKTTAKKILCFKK", "experiment": "Calcium imaging assay (FLIPR), HEK293T-Gα16gust44 cells transfected with human TAS2R4", "details": "TAS2R4, positive control at 3 mM", "protocol": "as §1, §2, §3, §4, §5, §6"}}, "note": "Where “and” joins values, the source holds several entries; their conditions need not be identical. Equal entries are not always repeated.", "data": [{"smiles": "O=C1C[C@@H]2OCC=C3CN4CC[C@]56c7ccccc7N1[C@H]5[C@H]2[C@H]3C[C@H]46", "note": "[Strychnin]", "values": [{"measurement": "Efficacy (maximal amplitude ΔF/F), individual data points", "setting": "[1]; single replicates", "value": "0.1901 and 0.2368 and 0.2851"}]}, {"smiles": "COc1cccc2c1cc([N+](=O)[O-])c1c(C(=O)O)cc3c(c12)OCO3", "note": "[aristolochic acid, reference compound]", "values": [{"measurement": "Efficacy = maximal amplitude (ΔF/F)", "setting": "[2]; TAS2R14, positive control at 10 µM, mean", "value": 0.4945}, {"measurement": "Efficacy (maximal amplitude ΔF/F), individual data points", "setting": "[2]; TAS2R14, positive control at 10 µM, single replicates", "value": "0.6939 and 0.4242 and 0.3654"}, {"measurement": "Efficacy (signal amplitude) versus control stimulus, TAS2R14", "setting": "[2]; highest applied concentrations, control 10 µM aristolochic acid", "value": "about twice as high as the most effective bile acids"}]}, {"smiles": "CC[N+](CC)(CC(=O)Nc1c(C)cccc1C)Cc1ccccc1", "note": "[denatonium benzoate, reference compound]", "values": [{"measurement": "Efficacy = maximal amplitude (ΔF/F)", "setting": "[3]; mean", "value": 0.08257}, {"measurement": "Efficacy (maximal amplitude ΔF/F), individual data points", "setting": "[3]; single replicates", "value": "0.09973 and 0.06456 and 0.07602"}]}, {"smiles": "C=C(C)[C@@H]1[C@H]2OC(=O)[C@@H]1[C@]1(O)C[C@H]3O[C@]34C(=O)O[C@H]2[C@]14C", "note": "[picrotoxinin, reference compound]", "values": [{"measurement": "Efficacy = maximal amplitude (ΔF/F)", "setting": "[4]; mean", "value": 0.1084}, {"measurement": "Efficacy (maximal amplitude ΔF/F), individual data points", "setting": "[4]; single replicates", "value": "0.08063 and 0.1121 and 0.1325"}]}, {"smiles": "COc1cc2c(c(OC)c1OC)-c1ccc(OC)c(=O)cc1[C@@H](NC(C)=O)CC2", "note": "[Colchicin]", "values": [{"measurement": "Efficacy = maximal amplitude (ΔF/F)", "setting": "[5]; mean", "value": 0.02059}, {"measurement": "Efficacy (maximal amplitude ΔF/F), individual data points", "setting": "[5]; single replicates", "value": "0.02499 and 0.02039 and 0.01223"}]}, {"smiles": "O=C1C[C@@H]2OCC=C3CN4CC[C@]56c7ccccc7N1[C@H]5[C@H]2[C@H]3C[C@H]46", "note": "[strychnine, reference compound]", "values": [{"measurement": "Efficacy = maximal amplitude (ΔF/F)", "setting": "[1]; mean", "value": 0.2373}]}]}
